Assay results as given in patent US10329542B2, “HBV RNAse H purification and enzyme inhibitors” (Saint Louis University, priority 2012, dated 2019).

What was measured:
HBV genotype C RNAseH = experiment: Oligonucleotide-directed RNAseH cleavage assay, HBV genotype C; type: biochemical, Hepatitis B virus; conditions: class by concentration giving inhibition (10, 20, 60 μM)
Method: (§1) For the oligonucleotide-directed RNAseH cleavage assay (Gong et al., 2001), 6 μl protein extract (typical protein concentration 2.8 mg/ml) was mixed with 0.5 μg internally ^32P-labeled DRF+ RNA (nucleotides 2401-2605 of the duck HBV genome plus 60 nucleotides of flanking sequences from pBluescript) and 3 μg oligonucleotide D2507- or its corresponding negative control D2526+ on ice in 20 μl under the conditions in Table 1. Some reactions in FIG. 5 employed oligonucleotide D2543M-Sal or its D2453+ negative control as indicated. The reactions were incubated at 42° C. for 90 min. and terminated by addition of Laemmli protein loading buffer and boiling. The samples were resolved by 12% SDS-PAGE, the gels were stained with Coomassie blue to monitor protein loading, and labeled RNA was detected by autoradiography. Candidate inhibitors were dissolved in DMSO and added at the indicated concentrations during assembly of the reactions. Control reactions lacking the compounds contained DMSO as a vehicle control. The RNAseH autoradiograms were scanned and quantified with ImageJ. The oligonucleotides were: D2526+([…]; SEQ ID NO:8), D2507-([…]; SEQ ID NO:9), D2453+([…]; SEQ ID NO:10), and D2543M-Sal ([…]; SEQ ID NO:11).
Incremental improvements were developed in extraction of the HBV RNAseH from the bacterial cell pellets since the data were generated for Examples 1 and 2. Key among these was shifting from using a cup sonicator to a probe sonicator and reducing the duration of the sonication period from 3×60 second bursts to 3×20 second bursts. When the […] genotype C clone that had inconsistent activity under the old extraction conditions (FIG. 6C) was isolated under these conditions, it became consistently and robustly active (FIG. 16).

[1] = biological target: T1, HBV genotype D RNAseH (HRHPL) (Hepatitis B virus genotype D subtype ayw, UniProt P03156, INS679M); experiment: Oligonucleotide-directed RNAseH cleavage assay, HBV genotype D; type: biochemical; conditions: for Activity vs. HBV Biochemical vs. gtD: class by concentration giving inhibition (10, 20, 60 μM); for Residual activity at 10 uM, Genotype D: ± standard deviation, 3 to 7 replicates
T1 construct: HRHPL contains HBV genotype D (Genbank V01460) polymerase residues 684-845; made in house; host or cells: E. coli BL21 codon+
T1 sequence (P03156 680-832, added parts left off, stated change not applied): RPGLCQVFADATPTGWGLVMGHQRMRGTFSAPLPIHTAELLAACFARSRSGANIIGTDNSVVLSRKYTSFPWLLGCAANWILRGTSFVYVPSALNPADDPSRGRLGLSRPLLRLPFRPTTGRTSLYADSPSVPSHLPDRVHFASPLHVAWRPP
Method: For the oligonucleotide-directed RNAseH cleavage assay (Gong et al., 2001), 6 μl protein extract (typical protein concentration 2.8 mg/ml) was mixed with 0.5 μg internally ^32P-labeled DRF+ RNA (nucleotides 2401-2605 of the duck HBV genome plus 60 nucleotides of flanking sequences from pBluescript) and 3 μg oligonucleotide D2507- or its corresponding negative control D2526+ on ice in 20 μl under the conditions in Table 1. Some reactions in FIG. 5 employed oligonucleotide D2543M-Sal or its D2453+ negative control as indicated. The reactions were incubated at 42° C. for 90 min. and terminated by addition of Laemmli protein loading buffer and boiling. The samples were resolved by 12% SDS-PAGE, the gels were stained with Coomassie blue to monitor protein loading, and labeled RNA was detected by autoradiography. Candidate inhibitors were dissolved in DMSO and added at the indicated concentrations during assembly of the reactions. Control reactions lacking the compounds contained DMSO as a vehicle control. The RNAseH autoradiograms were scanned and quantified with ImageJ.
(§2) Oligonucleotide-directed RNAseH cleavage assays (Gong et al., 2001) were performed as described (Tavis et al., 2013). Briefly, HBV RNAseH extracts were mixed with a 264 nt-long internally ^32P-labeled RNA plus an excess of a complementary DNA oligonucleotide or its inverse-complement as a negative control in a final concentration of 65 mM Tris pH 8.0, 190 mM NaCl, 5 mM MgCl2, 5 mM dTT, 0.05% NP40, and 6% glycerol. βTJ was dissolved in DMSO and added at the indicated concentrations; the final concentration of DMSO in all reactions was 1%. The reactions were incubated at 42° C. for 90 min. and terminated by addition of Laemmli protein electrophoresis buffer. The samples were resolved by SDS-PAGE, labeled RNA was detected by autoradiography, the autoradiograms were scanned, and the RNA cleavage products were quantified with ImageJ (National Institutes of Health). IC50 values were calculated by non-linear regression using GraphPad Prism (GraphPad Software, Inc.).

human RNAseH1 = biological target: T2, human RNAseH1 (Homo sapiens, UniProt O60930); experiment: Oligonucleotide-directed RNAseH assay, recombinant human RNAseH1; type: biochemical; conditions: for Activity vs. human RNAseH1: class by concentration giving inhibition (10, 20, 60 μM)
T2 construct: hexahistidine (N); made in house; host or cells: E. coli BL21 codon+
T2 sequence (O60930 1-286): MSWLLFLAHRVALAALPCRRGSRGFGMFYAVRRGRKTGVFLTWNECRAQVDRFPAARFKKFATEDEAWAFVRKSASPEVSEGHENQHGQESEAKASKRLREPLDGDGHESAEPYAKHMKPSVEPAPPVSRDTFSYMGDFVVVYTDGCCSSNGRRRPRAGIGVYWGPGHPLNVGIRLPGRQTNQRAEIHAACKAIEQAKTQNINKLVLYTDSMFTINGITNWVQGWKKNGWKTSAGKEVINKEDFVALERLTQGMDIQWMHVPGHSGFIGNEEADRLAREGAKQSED
Method: as §1
Therefore, the inventors cloned the human RNAseH1 with an N-terminal hexahistidine tag, expressed it in E. coli, and purified the protein by nickel affinity chromatography. […] This enzyme was active in the oligonucleotide-directed and fluorescent RNAseH assays (FIG. 10B and data not shown). To determine how inhibition of human RNAseH1 compared to inhibition of the HBV RNAseH, the inventor titrated the RNAaseH1 enzyme to yield similar levels of activity as the HBV enzyme, and then the inventor directly compared the ability of compounds #8-12 to inhibit human RNAseH1 and HRHPL at 10 μM. […] Therefore, it is possible to inhibit the HBV RNAseH without inhibiting human RNAseH1.
as §2

HBV = HBV genomic replication assays (Table 2); type: cell-based, Hepatitis B virus; conditions: class by active concentration
Method: Huh7 cells were maintained in Dulbecco's modified Eagle's medium with 10% fetal bovine serum at 37° C. in 5% CO2. Cells were seeded into 60 mm dishes and transfected at 70% confluency with 2.6 μg of plasmids using TransIT-LT1 (Mirus, Inc.). Test compounds were added the morning following transfection at 10 or 50 μM, and fresh medium containing the compounds was provided every 1-2 days. Four or five days post-transfection HBV cores were isolated by lysis of the cells in 10 mM Tris pH 7.5, 1 mM EDTA, 0.25% NP40, 50 mM NaCl, and 8% sucrose followed by sedimentation through a 30% sucrose cushion as described (Travis, et al., 1998). Viral DNAs were isolated from cytoplasmic core particle preparations by proteinase K digestion followed by phenol/chloroform extraction as described (Gong et al., 2001). Duplicate aliquots of the nucleic acids were treated with 2 U E. coli DNAse-free RNAseH (Invitrogen) at 37° C. for 30 min. or were mock treated. The nucleic acid samples were resolved by electrophoresis on 1.2% agarose gels and detected by Southern blotting with ^32P-labeled HBV DNA as a probe. […]

HBV genotype H RNAseH = experiment: Oligonucleotide-directed RNAseH cleavage assay, HBV genotype H; type: biochemical, Hepatitis B virus; conditions: 10 μM; ± standard deviation, 3 to 7 replicates
Method: as §1, §2

[2] = biological target: T3, chimeric HBV:HIV RNAseH HHC1 (Hepatitis B virus genotype D subtype ayw, UniProt P03156, DELINS787-795[…]/INS679M); experiment: Oligonucleotide-directed RNAseH cleavage assay, chimeric HHC1; type: biochemical; conditions: 10 μM; ± standard deviation, 3 to 7 replicates
T3 construct: HHC1 is an HRHPL derivative; made in house; host or cells: E. coli BL21 codon+
T3 sequence (P03156 680-786, added parts left off, stated change not applied): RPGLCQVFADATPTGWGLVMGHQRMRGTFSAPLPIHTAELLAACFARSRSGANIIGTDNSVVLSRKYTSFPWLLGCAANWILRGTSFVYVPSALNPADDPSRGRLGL
Source text: pCMV-HBV-LE-(CMV-HBV) is an HBV over-length genomic expression vector containing 1.2 copies of the HBV(adw2) genome (Genbank X02763.1) downstream of the CMV promoter cloned into pBS (Promega). Surface protein expression from this vector is ablated by mutating the preS and S open reading frames. pCMV-HBV(genotype D) is an analogous HBV genomic expression construct and was a gift from Dr. Shuping Tong (Brown University). For bacterial expression, codon-optimized cDNA sequences for HRHPL (genotypes A, B, C, D, and H), and noncodon-optimized sequences for HHC1 and HHC2 were cloned by gene synthesis (Genscript) between the NcoI and EcoRI sites into pTrcHis2B (Invitrogen) with a C-terminal hexahistidine tag. HRHPL contains HBV genotype D (Genbank V01460) polymerase residues 684-845. HHC1 is an HRHPL derivative in which HBV polymerase residues 800-808 were replaced with HIV residues corresponding to the RNAseH helix D ([…]; SEQ ID NO:6). HHC2 is an HRHPL derivative in which HBV polymerase residues 800-845 were replaced with HIV residues corresponding to the RNAseH helix D to the C-terminus ([…]; SEQ ID NO:7). The human RNAseH1 gene (NP_002927.2) was cloned with an N-terminal hexahistidine-tag between the BamHI and XhoI sites of pRsetB (Invitrogen) by gene synthesis.
as §1

SMILES	Activity vs. HBV Biochemical vs. gtC (HBV genotype C RNAseH)	Activity vs. HBV Biochemical vs. gtD [1]	Activity vs. human RNAseH1 (human RNAseH1)	Activity vs. HBV Genomic Replication (HBV)	Residual activity at 10 uM, Genotype H (HBV genotype H RNAseH)	Residual activity at 10 uM, Genotype D [1]	Residual activity at 10 uM, HHC1 [2]	Inhibition of human RNAseH1 (human RNAseH1; 10 μM, compared directly with HRHPL)
C[C@@H]1CCO[C@H]2Cn3cc(C(=O)NCc4ccc(F)cc4F)c(=O)c(O)c3C(=O)N12 [Compound 73, Dolutegravir, reference compound]	− (− no inhibition at 60 μM)	+ (+ inhibition at 60 μM)	–	–	–	–	–	–
CC(C)n1cc(C(=O)O)c(=O)c2ccccc21 [Compound 64]	− (− no inhibition at 60 μM)	+ (+ inhibition at 60 μM)	–	–	–	–	–	–
Cc1cc(C)c(C#N)c(=O)[nH]1 [Compound 20]	− (− no inhibition at 60 μM)	− (− no inhibition at 60 μM)	–	–	–	–	–	–
O=c1ccc2ccccc2n1O [Compound 43]	+ (+ inhibition at 60 μM)	− (− no inhibition at 60 μM)	− (− no inhibition at 60 μM)	–	–	–	–	–
O=C1c2cccc3cccc(c23)C(=O)N1O [Compound 45]	+ (+ inhibition at 60 μM)	− (− no inhibition at 60 μM)	− (− no inhibition at 60 μM)	− (− no activity at 60 μM)	–	–	–	–
O=c1cc2oc3cc(O)c(O)cc3c(-c3ccccc3)c-2cc1O [Compound 31]	–	+++ (+++ inhibition at 10 μM)	+++ (+++ inhibition at 10 μM)	− (− no activity at 60 μM)	50 ± 10 Percent DMSO control	26 ± 15 Percent DMSO control	42 ± 12 Percent DMSO control	–
CN(C)c1ccc(-c2c3cc(O)c(=O)cc-3oc3cc(O)c(O)cc23)cc1 [Compound 35]	–	+++ (+++ inhibition at 10 μM)	+++ (+++ inhibition at 10 μM)	− (− no activity at 60 μM)	38 ± 20 Percent DMSO control	27 ± 14 Percent DMSO control	39 ± 9 Percent DMSO control	–
Cn1c(N2CCCCS2(=O)=O)nc(C(=O)NCc2ccc(F)cc2)c(O)c1=O [Compound 72, reference compound]	+ (+ inhibition at 60 μM)	++ (++ inhibition at 20 μM)	–	–	–	–	–	–
O=c1c(O)c(-c2ccc(O)c(O)c2)oc2cc(O)c(O)c(O)c12 [Compound 7]	–	− (− no inhibition at 60 μM)	+++ (+++ inhibition at 10 μM)	− (− no activity at 60 μM)	68 ± 24 Percent DMSO control	45 ± 19 Percent DMSO control	56 ± 13 Percent DMSO control	–
CCn1cc(C(=O)O)c(=O)c2cc(Cc3ccccc3)c(OCCOC)cc21 [Compound 69]	+ (+ inhibition at 60 μM)	++ (++ inhibition at 20 μM)	–	–	–	–	–	–
COC(=O)Oc1nsnc1N1CCOCC1 [Compound 4]	–	+ (+ inhibition at 60 μM)	–	− (− no activity at 60 μM)	68 ± 18 Percent DMSO control	35 ± 6 Percent DMSO control	37 ± 5 Percent DMSO control	–
CCn1cc(C(=O)O)c(=O)c2cc(F)c(N3CCNCC3)nc21 [Compound 71, Enoxacin, reference compound]	− (− no inhibition at 60 μM)	− (− no inhibition at 60 μM)	–	–	–	–	–	–
O=c1c(O)c(-c2cc(O)c(O)c(O)c2)oc2cc(O)cc(O)c12 [Compound 9]	–	++ (++ inhibition at 20 μM)	++ (++ inhibition at 20 μM)	− (− no activity at 60 μM)	66 ± 23 Percent DMSO control	33 ± 10 Percent DMSO control	58 ± 15 Percent DMSO control	inhibited it weakly
